Results as given in the supplement of paper PMC11451515.

Tested on: P12-Ichikawa
Assay: cell viability relative to DMSO control; higher = less cytotoxic
Conditions: 48 h
Outline: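 NOMO1 or SEM (500 cells/well) or P12-Ichikawa (1000 cells/well) leukemia cells were adapted for at least four passages in each medium. They were seeded in 1536-well plates (5 μl) and pin-dosed with library compounds in DMSO over an 11-point threefold series, 47 μM to 0.79 nM. CellTiter-Glo One luminescence was read after 48 h at 37°C. Viability is the per-plate percentage relative to DMSO wells, with cell-free wells as background.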

[1] = HPLM + 10% dialyzed FBS, 0.000781 µM
[2] = HPLM + 10% dialyzed FBS, 0.00234 µM
[3] = HPLM + 10% dialyzed FBS, 0.00702 µM
[4] = HPLM + 10% dialyzed FBS, 0.0211 µM
[5] = HPLM + 10% dialyzed FBS, 0.0632 µM
[6] = HPLM + 10% dialyzed FBS, 0.19 µM
[7] = HPLM + 10% dialyzed FBS, 0.569 µM
[8] = HPLM + 10% dialyzed FBS, 1.71 µM
[9] = HPLM + 10% dialyzed FBS, 5.12 µM
[10] = HPLM + 10% dialyzed FBS, 15.4 µM
[11] = HPLM + 10% dialyzed FBS, 46.1 µM
[12] = RPMI 5 mM glucose + 10% FBS, 0.000781 µM
[13] = RPMI 5 mM glucose + 10% FBS, 0.00234 µM
[14] = RPMI 5 mM glucose + 10% FBS, 0.00702 µM
[15] = RPMI 5 mM glucose + 10% FBS, 0.0211 µM
[16] = RPMI 5 mM glucose + 10% FBS, 0.0632 µM
[17] = RPMI 5 mM glucose + 10% FBS, 0.19 µM
[18] = RPMI 5 mM glucose + 10% FBS, 0.569 µM
[19] = RPMI 5 mM glucose + 10% FBS, 1.71 µM
[20] = RPMI 5 mM glucose + 10% FBS, 5.12 µM
[21] = RPMI 5 mM glucose + 10% FBS, 15.4 µM
[22] = RPMI 5 mM glucose + 10% FBS, 46.1 µM
[23] = RPMI 5 mM glucose + 10% dialyzed FBS, 0.000781 µM
[24] = RPMI 5 mM glucose + 10% dialyzed FBS, 0.00234 µM
[25] = RPMI 5 mM glucose + 10% dialyzed FBS, 0.00702 µM
[26] = RPMI 5 mM glucose + 10% dialyzed FBS, 0.0211 µM
[27] = RPMI 5 mM glucose + 10% dialyzed FBS, 0.0632 µM
[28] = RPMI 5 mM glucose + 10% dialyzed FBS, 0.19 µM
[29] = RPMI 5 mM glucose + 10% dialyzed FBS, 0.569 µM
[30] = RPMI 5 mM glucose + 10% dialyzed FBS, 1.71 µM
[31] = RPMI 5 mM glucose + 10% dialyzed FBS, 5.12 µM
[32] = RPMI 5 mM glucose + 10% dialyzed FBS, 15.4 µM
[33] = RPMI 5 mM glucose + 10% dialyzed FBS, 46.1 µM

| SMILES | cell viability [1] [%] | cell viability [2] [%] | cell viability [3] [%] | cell viability [4] [%] | cell viability [5] [%] | cell viability [6] [%] | cell viability [7] [%] | cell viability [8] [%] | cell viability [9] [%] | cell viability [10] [%] | cell viability [11] [%] | cell viability [12] [%] | cell viability [13] [%] | cell viability [14] [%] | cell viability [15] [%] | cell viability [16] [%] | cell viability [17] [%] | cell viability [18] [%] | cell viability [19] [%] | cell viability [20] [%] | cell viability [21] [%] | cell viability [22] [%] | cell viability [23] [%] | cell viability [24] [%] | cell viability [25] [%] | cell viability [26] [%] | cell viability [27] [%] | cell viability [28] [%] | cell viability [29] [%] | cell viability [30] [%] | cell viability [31] [%] | cell viability [32] [%] | cell viability [33] [%] |
| --- | --- | --- | --- | --- | --- | --- | --- | --- | --- | --- | --- | --- | --- | --- | --- | --- | --- | --- | --- | --- | --- | --- | --- | --- | --- | --- | --- | --- | --- | --- | --- | --- | --- |
| COC(=O)Nc1cc(Nc2cc(NC3CC3)c3ncc(C#N)n3n2)c(Cl)c(N2CCN(C)CC2)c1 | 107 | 102 | 102 | 111 | 106 | 97.4 | 106 | 103 | 76.8 | 65.3 | 3.92 | 104 | 104 | 102 | 106 | 105 | 108 | 105 | 92.8 | 67 | 41.5 | 4.51 | 106 | 108 | 111 | 108 | 109 | 102 | 104 | 95 | 63.7 | 36.1 | 4.2 |
| CN(C)[S+](=O)([O-])c1ccc2c(c1)C(=Cc1cc3c([nH]1)CCCC3)C(=O)N2 | 124 | 114 | 122 | 121 | 123 | 117 | 125 | 122 | 111 | 110 | 112 |  |  |  |  |  |  |  |  |  |  |  | 118 | 125 | 121 | 116 | 114 | 125 | 128 | 124 | 122 | 106 | 108 |
| Cc1coc2c1C(=O)C(=O)c1c-2ccc2c(C)cccc12 |  |  |  |  |  |  |  |  |  |  |  | 120 | 123 | 107 | 112 | 128 | 120 | 114 | 123 | 111 | 121 | 115 | 125 | 116 | 124 | 117 | 116 | 112 | 117 | 109 | 109 | 103 | 108 |
| CCN1CCN(c2ccc(Nc3cc(N(C)C(=O)Nc4c(Cl)c(OC)cc(OC)c4Cl)ncn3)cc2)CC1 | 107 | 109 | 103 | 108 | 106 | 97.8 | 97.4 | 105 | 77.7 | 73.3 | 35.3 | 115 | 114 | 119 | 124 | 118 | 118 | 113 | 115 | 86 | 76.7 | 47.6 | 114 | 112 | 108 | 124 | 114 | 126 | 111 | 110 | 76.8 | 66.8 | 53.2 |
| C[C@@H]1COCCN1c1cc(C2([S@+](C)(=N)[O-])CC2)nc(-c2ccnc3[nH]ccc23)n1 | 99.7 | 103 | 106 | 110 | 110 | 109 | 99.8 | 92.3 | 47.5 | 15.7 | 7.87 | 104 | 105 | 118 | 114 | 109 | 114 | 104 | 90.7 | 55 | 19.7 | 7.94 | 99.4 | 110 | 117 | 113 | 123 | 128 | 109 | 84.7 | 40.8 | 16.5 | 8.66 |
| C[C@](O)(CS(=O)(=O)c1ccc(F)cc1)C(=O)Nc1ccc(C#N)c(C(F)(F)F)c1 | 97.6 | 115 | 110 | 120 | 115 | 115 | 124 | 119 | 118 | 114 | 107 | 104 | 110 | 112 | 109 | 111 | 108 | 114 | 110 | 126 | 119 | 105 | 102 | 118 | 126 | 130 | 122 | 120 | 132 | 120 | 130 | 113 | 101 |
| CCOC(=O)N1CCN(/[N+]([O-])=N/Oc2ccc([N+](=O)[O-])cc2C#N)CC1 | 97 | 106 | 108 | 107 | 106 | 115 | 113 | 15.9 | 9.82 | 9.87 | 9.31 | 110 | 115 | 117 | 110 | 118 | 115 | 119 | 12.1 | 9.8 | 8.38 | 7.09 | 103 | 101 | 105 | 111 | 113 | 108 | 108 | 16.4 | 10.6 | 9.71 | 9.91 |
| CC1CNc2c(cccc2[S+](=O)([O-])N[C@@H](CCCNC(=N)N)C(=O)N2CC[C@@H](C)C[C@@H]2C(=O)O)C1 (stereo not given in full) | 94.9 | 107 | 104 | 100 | 110 | 118 | 109 | 111 | 116 | 105 | 99.5 | 107 | 113 | 108 | 117 | 116 | 114 | 111 | 116 | 119 | 116 | 98.8 | 101 | 110 | 104 | 101 | 111 | 107 | 107 | 109 | 112 | 103 | 89.4 |
| CC(C)(C)NC(=O)Nc1cccc(Nc2ncc(F)c(NC(C)(C)CO)n2)c1 | 105 | 110 | 112 | 114 | 118 | 121 | 117 | 120 | 108 | 14.7 | 24.4 | 114 | 118 | 124 | 121 | 129 | 121 | 122 | 132 | 116 | 35.2 | 40.4 | 120 | 117 | 120 | 116 | 124 | 119 | 117 | 119 | 114 | 34.6 | 51 |
| COc1cc(OC2CCN(C)CC2)ccc1Nc1ncc2c(n1)n(C1CCCC1)c(=O)n2C | 83.2 | 85.4 | 83 | 91.2 | 91.6 | 97.9 | 88.5 | 92.8 | 99.6 | 86.2 | 2.55 | 74.9 | 93.8 | 82.7 | 88.2 | 85.8 | 81.4 | 91.6 | 81.3 | 87.2 | 69.9 | 5.17 | 76.7 | 80.6 | 76.3 | 85.5 | 86.1 | 80.4 | 86.5 | 83 | 85.6 | 61.4 | 0.821 |
| C[C@H]1COC2=C3N1\C=C(C(O)=O)/C(=O)C3=CC(=C2N4CCN(C)CC4)F | 117 | 116 | 121 | 116 | 109 | 113 | 97.2 | 109 | 92.7 | 85.6 | 82.9 | 111 | 113 | 117 | 120 | 98.2 | 116 | 98.6 | 103 | 84.2 | 62.5 | 70.4 | 109 | 111 | 114 | 118 | 108 | 112 | 91.7 | 94.7 | 82.4 | 74.2 | 62.6 |
| Cn1cnc2c(F)c(Nc3ccc(Br)cc3F)c(C(=O)NOCCO)cc21 | 88.4 | 101 | 96.6 | 11.1 | 102 | 91.9 | 91 | 85.7 | 87.2 | 86.3 | 81.2 | 84.5 | 92.6 | 96.7 | 13.6 | 92.3 | 82.7 | 80.1 | 78.2 | 75.5 | 74.2 | 73.1 | 91 | 98 | 101 | 26.2 | 97 | 93.5 | 83.8 | 89.1 | 91.8 | 86.6 | 81.4 |
| O=C1[C@H](Cc2ccc(O)cc2)N2C(=O)CCN(C(=O)NCc3ccccc3)[C@H]2CN1Cc1cccc2ccccc12 | 86.7 | 90.8 | 85.3 | 89.4 | 87.9 | 88.1 | 85.4 | 85.5 | 91.2 | 47.9 | 85.8 | 76.6 | 84.4 | 76.3 | 83 | 88.6 | 87.7 | 83 | 74 | 84.1 | 35 | 84.2 | 77.4 | 78.2 | 80.4 | 79.5 | 85 | 82.1 | 77.3 | 75.4 | 81.1 | 33.2 | 72.5 |
| CCOC(=O)[C@@H](N)Cc1ccc(-c2cc(O[C@H](c3ccc(Cl)cc3-n3ccc(C)n3)C(F)(F)F)nc(N)n2)cc1.O=C(O)CNC(=O)c1ccccc1 | 107 | 110 | 103 | 112 | 106 | 110 | 109 | 111 | 109 | 103 | 70.2 | 117 | 112 | 107 | 122 | 114 | 121 | 120 | 122 | 107 | 96.2 | 56.3 | 109 | 113 | 107 | 107 | 102 | 113 | 110 | 108 | 107 | 103 | 44.1 |
